Legend:
[1] = molecular target: T1, MKK4 (Homo sapiens, UniProt P45985); assay: KINOMEscan competition binding assay, MKK4; conditions: read-out: Potency MKK4 (derived from % of control values, PoC)
T1 sequence (P45985 84-399): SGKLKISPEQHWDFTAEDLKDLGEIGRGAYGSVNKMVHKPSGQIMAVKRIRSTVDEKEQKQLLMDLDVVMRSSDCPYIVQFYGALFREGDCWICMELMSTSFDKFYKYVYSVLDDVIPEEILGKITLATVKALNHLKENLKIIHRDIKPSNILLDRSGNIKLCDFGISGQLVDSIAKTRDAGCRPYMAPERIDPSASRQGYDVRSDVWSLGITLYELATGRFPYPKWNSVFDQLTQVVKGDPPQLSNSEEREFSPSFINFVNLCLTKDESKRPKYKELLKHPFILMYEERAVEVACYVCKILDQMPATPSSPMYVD

[2] = molecular target: JNK1 (Homo sapiens, UniProt P45983); assay: KINOMEscan competition binding assay, selectivity JNK1 versus MKK4; conditions: ratio of percent of control
[3] = molecular target: T2, MKK7 (Homo sapiens, UniProt O14733); assay: KINOMEscan competition binding assay, selectivity MKK7 versus MKK4; conditions: Test conc. 0.1 μM; ratio of percent of control; N/E* per footnote
T2 sequence (O14733 1-419): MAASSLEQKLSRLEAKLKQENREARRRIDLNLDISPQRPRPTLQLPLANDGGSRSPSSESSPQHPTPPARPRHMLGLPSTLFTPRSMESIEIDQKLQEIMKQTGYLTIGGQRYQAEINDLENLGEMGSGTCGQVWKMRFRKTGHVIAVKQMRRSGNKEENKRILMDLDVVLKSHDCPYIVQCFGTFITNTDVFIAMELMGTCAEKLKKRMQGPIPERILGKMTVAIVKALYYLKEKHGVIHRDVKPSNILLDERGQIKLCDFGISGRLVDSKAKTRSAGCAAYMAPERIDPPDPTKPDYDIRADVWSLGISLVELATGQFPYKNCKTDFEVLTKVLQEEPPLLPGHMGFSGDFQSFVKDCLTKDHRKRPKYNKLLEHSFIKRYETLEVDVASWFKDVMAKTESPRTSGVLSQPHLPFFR
Description: For investigation of the affinity to MKK4, MKK7 and JNK1, the kinases were produced in HEK-293 cells and subsequently tagged with DNA for qPCR detection. […] The liganded beads were blocked with excess biotin and washed with blocking buffer (SEABLOCK™ (Pierce), 1% BSA, 0.05% TWEEN®20, 1 mM DTT) to remove unbound ligand and to reduce nonspecific binding. […] All reactions were performed in polystyrene 96-well plates in a final volume of 0.135 mL. […] The kinase concentration in the eluates was measured by qPCR.

[4] = molecular target: BRaf (Homo sapiens, UniProt P15056); assay: KINOMEscan competition binding assay, selectivity BRaf versus MKK4; conditions: Test conc. 0.1 μM; ratio of percent of control; N/E* per footnote
Description: The assay was performed by combining three components: DNA-tagged kinase; immobilized ligand; and a test compound. The ability of the test compound to compete with the immobilized ligand was measured via quantitative PCR of the DNA tag. The technology is described in detail in Fabian, M. A. et al. A small molecule-kinase interaction map for clinical kinase inhibitors. Nat. […] Nat.
The test compounds were provided as 10 mM stock solutions. The test solutions at indicated final concentrations were prepared at DiscoverX.

[5] = Test conc 0.1 μM, N/E* = PoC for JNK1 = 100

Chain of BRaf (P15056 whole entry): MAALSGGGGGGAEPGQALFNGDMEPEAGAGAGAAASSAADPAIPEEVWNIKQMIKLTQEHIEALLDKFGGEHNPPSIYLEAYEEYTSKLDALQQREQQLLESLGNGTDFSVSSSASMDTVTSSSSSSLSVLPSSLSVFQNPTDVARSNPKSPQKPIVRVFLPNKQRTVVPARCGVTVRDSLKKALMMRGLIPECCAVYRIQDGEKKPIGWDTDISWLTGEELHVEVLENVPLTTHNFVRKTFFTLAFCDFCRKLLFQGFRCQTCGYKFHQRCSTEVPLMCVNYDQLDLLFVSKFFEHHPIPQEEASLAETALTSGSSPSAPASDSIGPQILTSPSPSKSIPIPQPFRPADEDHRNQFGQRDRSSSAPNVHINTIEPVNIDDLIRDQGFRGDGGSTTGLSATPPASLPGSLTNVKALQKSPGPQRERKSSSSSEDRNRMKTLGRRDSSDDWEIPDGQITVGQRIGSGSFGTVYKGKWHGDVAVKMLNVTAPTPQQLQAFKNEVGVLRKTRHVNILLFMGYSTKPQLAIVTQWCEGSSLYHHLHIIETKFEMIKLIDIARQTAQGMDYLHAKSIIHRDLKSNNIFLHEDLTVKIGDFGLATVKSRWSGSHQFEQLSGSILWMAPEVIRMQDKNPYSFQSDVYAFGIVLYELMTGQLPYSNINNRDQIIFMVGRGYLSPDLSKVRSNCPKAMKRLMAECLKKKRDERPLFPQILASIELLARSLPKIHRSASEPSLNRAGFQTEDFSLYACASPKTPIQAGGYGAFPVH
Chain of JNK1 (P45983 1-384 isoform P45983-2): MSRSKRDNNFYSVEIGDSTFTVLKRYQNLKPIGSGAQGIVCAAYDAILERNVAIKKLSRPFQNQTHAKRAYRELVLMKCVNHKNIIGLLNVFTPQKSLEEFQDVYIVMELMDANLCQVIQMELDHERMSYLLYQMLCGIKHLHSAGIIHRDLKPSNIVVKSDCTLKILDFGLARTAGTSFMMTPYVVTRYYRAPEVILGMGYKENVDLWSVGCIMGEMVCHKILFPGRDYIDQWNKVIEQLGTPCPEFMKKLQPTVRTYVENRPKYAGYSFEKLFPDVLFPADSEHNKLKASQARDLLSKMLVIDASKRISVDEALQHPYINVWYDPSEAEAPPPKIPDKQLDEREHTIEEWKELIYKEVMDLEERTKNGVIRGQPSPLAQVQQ

| SMILES | remaining binding at 0.1 µM [1] | Selectivity JNK1/MKK4 ([2]; Test conc 10 μM) | Selectivity MKK7/MKK4 [3] | Selectivity BRaf/MKK4 [4] | Selectivity JNK1/MKK4 [2, 5] |
| --- | --- | --- | --- | --- | --- |
| CCCS(=O)(=O)Nc1ccc(F)c(C(=O)c2c[nH]c3ncc(-c4ccc(OC)cc4)cc23)c1F [Example 3, N-(2,4-Difluoro-3-(5-(4-methoxyphenyl)-1H-pyrrolo[2,3-b]pyridine-3-carbonyl)phenyl)propane-1-sulfonamide] | 10 to 30% | >400 | 10 | 1.0 |  |
| CCCS(=O)(=O)Nc1ccc(F)c(C(=O)c2c[nH]c3ncc(-c4ccc(C#N)cc4)cc23)c1F [Example 4, N-(3-(5-(4-Cyanophenyl)-1H-pyrrolo[2,3-b]pyridine-3-carbonyl)-2,4-difluorophenyl)propane-1-sulfonamide] | 10 to 30% | >400 | 25 | 2.8 |  |
| CCCS(=O)(=O)Nc1ccc(F)c(C(=O)c2c[nH]c3ncc(-c4cnc5ccccc5c4)cc23)c1F [Example 6, N-(2,4-Difluoro-3-(5-(quinolin-3-yl)-1H-pyrrolo[2,3-b]pyridin-3-carbonyl)phenyl)propane-1-sulfonamide] | > 30% | >100 | 5.6 | 0.1 |  |
| CCCS(=O)(=O)Nc1ccc(F)c(C(=O)c2c[nH]c3ncc(-c4ccc(SC)cc4)cc23)c1F [Example 8, N-(2,4-Difluoro-3-(5-(4-(methylthio)phenyl)-1H-pyrrolo[2,3-b]pyridine-3-carbonyl)phenyl)propane-1-sulfonamide] | > 30% | >100 | 7.6 | 0.5 |  |
| CCCS(=O)(=O)Nc1ccc(F)c(C(=O)c2c[nH]c3ncc(-c4ccccc4O)cc23)c1F [Example 9, N-(2,4-Difluoro-3-(5-(2-hydroxyphenyl)-1H-pyrrolo[2,3-b]pyridine-3-carbonyl)phenyl)propane-1-sulfonamide] | > 30% | >10 | 6.7 | 4.2 |  |
| CCCS(=O)(=O)Nc1ccc(F)c(C(=O)c2c[nH]c3ncc(-c4ccc(F)cc4)cc23)c1F [Example 11, N-(2,4-Difluoro-3-(5-(4-fluorophenyl)-1H-pyrrolo[2,3-b]pyridine-3-carbonyl)phenyl)propane-1-sulfonamide] | 10 to 30% | >100 | 25 | 6.3 |  |
| CCCS(=O)(=O)Nc1ccc(F)c(C(=O)c2c[nH]c3ncc(-c4cccc(C#N)c4)cc23)c1F [Example 14, N-(3-(5-(3-Cyanophenyl)-1H-pyrrolo[2,3-b]pyridine-3-carbonyl)-2,4-difluorophenyl)propane-1-sulfonamide] | 10 to 30% | 23 | 10 | 1.5 |  |
| CCCS(=O)(=O)Nc1ccc(F)c(C(=O)c2c[nH]c3ncc(-c4ccc5c(c4)OCCO5)cc23)c1F [Example 15, N-(3-(5-(2,3-Dihydrobenzo[b][1,4]dioxin-6-yl)-1H-pyrrolo[2,3-b]pyridine-3-carbonyl)-2,4-difluorophenyl)propane-1-sulfonamide] | 10 to 30% | >100 | 30 | 2.0 |  |
| CCCS(=O)(=O)Nc1ccc(F)c(C(=O)c2c[nH]c3ncc(-c4ccc(F)c(F)c4)cc23)c1F [Example 16, N-(3-(5-(3,4-Difluorophenyl)-1H-pyrrolo[2,3-b]pyridine-3-carbonyl)-2,4-difluorophenyl)propane-1-sulfonamide] | > 30% | >100 | 8 | 2.5 |  |
| CCCS(=O)(=O)Nc1ccc(F)c(C(=O)c2c[nH]c3ncc(-c4cccc5ccccc45)cc23)c1F [Example 18, N-(2,4-Difluoro-3-(5-(naphthalen-1-yl)-1H-pyrrolo[2,3-b]pyridine-3-carbonyl)phenyl)propane-1-sulfonamide] | > 30% | 40 | 3 | 1.6 |  |
| CCCS(=O)(=O)Nc1cc(C)cc(C(=O)c2c[nH]c3ncc(-c4ccc(Cl)cc4)cc23)c1 [Example 24, N-(3-(5-(4-Chlorophenyl)-1H-pyrrolo[2,3-b]pyridine-3-carbonyl)-5-methylphenyl)propane-1-sulfonamide] | > 30% |  | 1.0 | 0.9 | N/E* (PoC for JNK1 = 100) |
| CCCS(=O)(=O)Nc1cccc(C(=O)c2c[nH]c3ncc(-c4ccc(Cl)cc4)cc23)c1C [Example 25, N-(3-(5-(4-Chlorophenyl)-1H-pyrrolo[2,3-b]pyridine-3-carbonyl)-2-methylphenyl)propane-1-sulfonamide] | > 30% |  | 1.0 | 1.0 | N/E* (PoC for JNK1 = 100) |
| CCCS(=O)(=O)Nc1ccc(F)c(C(=O)c2c[nH]c3ncc(-c4ccc(Cl)cc4Cl)cc23)c1F [Example 41, N-(3-(5-(2,4-Dichlorophenyl)-1H-pyrrolo[2,3-b]pyridine-3-carbonyl)-2,4-difluorophenyl)propane-1-sulfonamide] | > 30% |  | 3.3 | 3.3 | N/E* (PoC for JNK1 = 100) |
| CCCS(=O)(=O)Nc1ccc(F)c(C(=O)c2c[nH]c3ncc(-c4ccc(Cl)cc4F)cc23)c1F [Example 49] | < 10% |  | N/E* (PoC for JNK1 = 100) | 8.9 | 7.1 |
| CCCCS(=O)(=O)Nc1cccc(C(=O)c2c[nH]c3ncc(-c4ccc(F)cc4C)cc23)c1F [Example 51] | < 10% |  | N/E* (PoC for JNK1 = 100) | N/E* (PoC for JNK1 = 100) | N/E* (PoC for JNK1 = 100) |
| CCCS(=O)(=O)Nc1ccc(F)c(C(=O)c2c[nH]c3ncc(-c4ccc(O)cc4Cl)cc23)c1F [Example 94, N-(3-(5-(2-chloro-4-hydroxy-phenyl)-1H-pyrrolo[2,3-b]pyridine-3-carbonyl)-2,4-difluoro-phenyl)propane-1-sulfonamide] | < 10% |  | 22 | 20 | 25 |
| CCCS(=O)(=O)Nc1ccc(F)c(C(=O)c2c[nH]c3ncc(-c4ccc(OCC)cc4Cl)cc23)c1F [Example 95, N-(3-(5-(2-chloro-4-ethoxy-phenyl)-1H-pyrrolo[2,3-b]pyridine-3-carbonyl)-2,4-difluorophenyl)-propane-1-sulfonamide] | < 10% |  | N/E* (PoC for JNK1 = 100) | 6.5 | 8.6 |
| CCCS(=O)(=O)Nc1ccc(F)c(C(=O)c2c[nH]c3ncc(-c4ccc(OC(C)C)cc4Cl)cc23)c1F [Example 96, N-(3-(5-(2-chloro-4-isopropoxy-phenyl)-1H-pyrrolo[2,3-b]pyridine-3-carbonyl)-2,4-difluorophenyl)-propane-1-sulfonamide] | 10 to 30% |  | N/E* (PoC for JNK1 = 100) | 8.0 | 8.7 |
| CCCOc1ccc(-c2cnc3[nH]cc(C(=O)c4c(F)ccc(NS(=O)(=O)CCC)c4F)c3c2)c(Cl)c1 [Example 97, N-(3-(5-(2-chloro-4-propoxy-phenyl)-1H-pyrrolo[2,3-b]pyridine-3-carbonyl)-2,4-difluorophenyl)-propane-1-sulfonamide] | 10 to 30% |  | N/E* (PoC for JNK1 = 100) | 6.5 | 8.6 |
| CCCS(=O)(=O)Nc1ccc(F)c(C(=O)c2c[nH]c3ncc(-c4ccc(OCCOC)cc4Cl)cc23)c1F [Example 98, N-(3-(5-(2-chloro-4-(2-methoxy-ethoxy)phenyl)-1H-pyrrolo[2,3-b]pyridine-3-carbonyl)-2,4-difluorophenyl)propane-1-sulfonamide] | < 10% |  | 20 | 8.4 | 16 |
